Assays:
Type in all cases: cell-based
CDK4 [1] = target: T1, CDK4 (Homo sapiens, UniProt P11802+Q16531); test: CDK4 percentage degradation in Calu-1 cells (Table 6); design: Cells that express cyclin D1-3 and CDK4/6 proteins were treated with heterobifunctional compounds; endogenous in cells; host or cells: Calu-1; settings: 16 hours; for inhibition at 0.04 µM: 40 nM; for inhibition at 0.2 µM: 200 nM
In short: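 Calu-1 cells exposed to heterobifunctional compounds at 40 nM or 200 nM for 16 h. Cyclin D1 and CDK4 levels measured by Western blot of RIPA lysates (BCA-normalised loading), bands quantified by densitometry and expressed as percentage degradation.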
Target sequence in this assay (P11802 2-303 limits assumed): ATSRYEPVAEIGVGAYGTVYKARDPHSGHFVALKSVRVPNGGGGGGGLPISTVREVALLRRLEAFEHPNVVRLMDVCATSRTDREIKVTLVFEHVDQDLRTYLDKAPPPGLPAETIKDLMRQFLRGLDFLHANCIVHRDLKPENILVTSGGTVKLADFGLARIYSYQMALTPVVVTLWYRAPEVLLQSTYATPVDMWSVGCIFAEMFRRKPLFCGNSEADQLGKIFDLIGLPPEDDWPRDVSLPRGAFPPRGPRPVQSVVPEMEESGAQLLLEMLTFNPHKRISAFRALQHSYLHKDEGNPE
Target sequence in this assay (P24385 whole entry partner): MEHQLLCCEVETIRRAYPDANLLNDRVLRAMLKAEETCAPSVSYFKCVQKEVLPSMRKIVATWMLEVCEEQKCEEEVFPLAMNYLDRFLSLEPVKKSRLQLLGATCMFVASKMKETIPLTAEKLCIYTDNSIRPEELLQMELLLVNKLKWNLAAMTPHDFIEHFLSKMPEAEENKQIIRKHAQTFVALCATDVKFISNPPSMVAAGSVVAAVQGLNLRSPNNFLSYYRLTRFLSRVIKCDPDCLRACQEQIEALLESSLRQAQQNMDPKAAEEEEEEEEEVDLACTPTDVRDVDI
Target sequence in this assay (Q16531 2-1140 limits assumed): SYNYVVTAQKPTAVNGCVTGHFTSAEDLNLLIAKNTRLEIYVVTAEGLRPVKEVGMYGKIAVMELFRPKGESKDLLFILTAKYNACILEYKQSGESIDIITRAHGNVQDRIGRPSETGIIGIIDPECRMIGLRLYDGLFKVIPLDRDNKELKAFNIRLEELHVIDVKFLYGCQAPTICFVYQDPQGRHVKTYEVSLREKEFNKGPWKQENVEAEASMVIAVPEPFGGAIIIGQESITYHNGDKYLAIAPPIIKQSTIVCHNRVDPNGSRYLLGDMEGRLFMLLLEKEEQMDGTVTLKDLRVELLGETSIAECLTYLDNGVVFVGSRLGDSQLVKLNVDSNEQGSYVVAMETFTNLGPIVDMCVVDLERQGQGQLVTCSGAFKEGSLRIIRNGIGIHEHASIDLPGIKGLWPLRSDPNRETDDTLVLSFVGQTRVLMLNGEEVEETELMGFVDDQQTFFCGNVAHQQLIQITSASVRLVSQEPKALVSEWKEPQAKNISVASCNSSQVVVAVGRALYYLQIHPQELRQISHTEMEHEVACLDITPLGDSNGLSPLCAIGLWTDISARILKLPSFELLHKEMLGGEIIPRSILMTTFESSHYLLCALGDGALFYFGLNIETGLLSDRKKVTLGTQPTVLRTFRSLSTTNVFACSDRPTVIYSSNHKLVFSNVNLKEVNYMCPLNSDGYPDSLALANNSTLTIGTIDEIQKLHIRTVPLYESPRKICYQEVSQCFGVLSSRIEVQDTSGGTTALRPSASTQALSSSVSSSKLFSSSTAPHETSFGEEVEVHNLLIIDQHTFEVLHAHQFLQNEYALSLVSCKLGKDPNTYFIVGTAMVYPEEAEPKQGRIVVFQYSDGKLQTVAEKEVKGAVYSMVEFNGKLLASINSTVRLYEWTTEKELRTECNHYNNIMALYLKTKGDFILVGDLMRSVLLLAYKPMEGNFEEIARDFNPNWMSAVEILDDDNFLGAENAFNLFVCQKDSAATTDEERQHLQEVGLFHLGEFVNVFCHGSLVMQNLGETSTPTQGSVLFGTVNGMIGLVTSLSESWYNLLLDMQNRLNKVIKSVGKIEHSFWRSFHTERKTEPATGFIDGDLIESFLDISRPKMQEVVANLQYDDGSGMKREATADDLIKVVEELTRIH

MCF7 cells = test: Anti-proliferation (viability) of MCF7 cells (Table 7, FIG. 2B); settings: Homo sapiens, MCF7, MCF7 cells, 3-6 days, 10-point serial dilution; read-out: GI IC50 in MCF-7
CDK4 [2] = target: T1, CDK4; test: HiBiT detection of HiBiT-tagged CDK4 protein level in MCF7 cells, 16 hours (Table 8); design: expressed in transfected cells; host or cells: MCF7; settings: MCF7 cells stably expressing HiBiT tagged target proteins; for activity at 0.01 µM: 10 nM, read-out: % CDK4 Relative Level (10 nM); for activity at 0.1 µM: 100 nM, read-out: % CDK4 Relative Level (100 nM)
Description: HiBiT detection system quantitatively measures total amounts of HiBiT-tagged proteins using a luminescent based method. MCF7 cells stably expressing HiBiT tagged target proteins were treated with heterobifunctional compounds at indicated concentrations for 16 hours, then lysed with Nano-Glo HiBiT Lytic detection reagents.
Target sequence in this assay (P11802 whole entry): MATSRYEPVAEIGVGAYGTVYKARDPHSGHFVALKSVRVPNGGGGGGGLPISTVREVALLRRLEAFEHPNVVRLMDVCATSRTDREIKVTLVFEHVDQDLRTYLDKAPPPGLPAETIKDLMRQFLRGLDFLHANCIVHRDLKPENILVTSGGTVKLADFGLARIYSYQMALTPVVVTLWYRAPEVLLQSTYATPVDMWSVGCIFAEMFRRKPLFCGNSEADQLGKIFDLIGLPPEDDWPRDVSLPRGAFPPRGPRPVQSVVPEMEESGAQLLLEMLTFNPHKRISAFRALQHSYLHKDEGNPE
Target sequence in this assay (P24385 whole entry partner): as the sequence (P24385 whole entry partner) above
Target sequence in this assay (Q16531 2-1140 limits assumed): as the sequence (Q16531 2-1140 limits assumed) above

SMILES	inhibition at 0.04 µM (CDK4 [1]) [%]	inhibition at 0.2 µM (CDK4 [1]) [%]	IC50 (MCF7 cells) [nM]	activity at 0.01 µM (CDK4 [2]) [%]	activity at 0.1 µM (CDK4 [2]) [%]
CC(=O)c1c(C)c2cnc(Nc3ccc(N4CCN(C5CCN(C(=O)[C@H]6CC[C@H](Nc7nc(NC(C)C)ccc7C(=O)Nc7ccc(N(C)C)nn7)CC6)C5)CC4)cn3)nc2n(C2CCCC2)c1=O (stereo partly shown) [CPD-399, 2-((−4-(3-(4-(6-((6-acetyl-8-cyclopentyl-5-methyl-7-oxo-7,8-dihydropyrido[2,3-d]pyrimidin-2-yl)amino)pyridin-3-yl)piperazin-1-yl)pyrrolidine-1-carbonyl)cyclohexyl)amino)-N-(6-(dimethylamino)pyridazin-3-yl)-6-(isopropylamino)nicotinamide]	< 30	< 30	< 50	–	–
CC(=O)c1c(C)c2cnc(Nc3ccc(N4CCN(C5CCN(C(=O)C6CC(Nc7nc(NC(C)C)ccc7C(=O)Nc7ccc(N(C)C)nn7)C6)C5)CC4)cn3)nc2n(C2CCCC2)c1=O (stereo not shown) [CPD-402, 2-((3-(3-(4-(6-((6-acetyl-8-cyclopentyl-5-methyl-7-oxo-7,8-dihydropyrido[2,3-d]pyrimidin-2-yl)amino)pyridin-3-yl)piperazin-1-yl)pyrrolidine-1-carbonyl)cyclobutyl)amino)-N-(6-(dimethylamino)pyridazin-3-yl)-6-(isopropylamino)nicotinamide]	< 30	< 30	50 to 100	–	–
CC(C)Nc1ccc(C(=O)Nc2ccc(N(C)C)nn2)c(NC2CC3(CC(NC(=O)CN4CCN(Cc5ccc(Nc6ncc7cc(C(=O)N(C)C)n(C8CCCC8)c7n6)nc5)CC4)C3)C2)n1 (stereo not shown) [CPD-562, 7-cyclopentyl-2-((5-((4-(2-((6-((3-((6-(dimethylamino)pyridazin-3-yl)carbamoyl)-6-(isopropylamino)pyridin-2-yl)amino)spiro[3.3]heptan-2-yl)amino)-2-oxoethyl)piperazin-1-yl)methyl)pyridin-2-yl)amino)-N,N-dimethyl-7H-pyrrolo[2,3-d]pyrimidine-6-carboxamide]	–	–	–	> 85	> 85
CC(C)Nc1ccc(C(=O)Nc2ccc(N(C)C)nn2)c(NC2CC3(C2)CN(C(=O)CN2CCN(Cc4ccc(Nc5ncc6cc(C(=O)N(C)C)n(C7CCCC7)c6n5)nc4)CC2)C3)n1 [CPD-563, 7-cyclopentyl-2-((5-((4-(2-(6-((3-((6-(dimethylamino)pyridazin-3-yl)carbamoyl)-6-(isopropylamino)pyridin-2-yl)amino)-2-azaspiro[3.3]heptan-2-yl)-2-oxoethyl)piperazin-1-yl)methyl)pyridin-2-yl)amino)-N,N-dimethyl-7H-pyrrolo[2,3-d]pyrimidine-6-carboxamide]	–	–	–	> 85	> 85
CC(=O)c1c(C)c2cnc(Nc3ccc(CN4CCC(CC(=O)NC5CC6(C5)CC(Nc5nc(NC(C)C)ccc5C(=O)Nc5ccc(N(C)C)nn5)C6)CC4)cn3)nc2n(C2CCCC2)c1=O (stereo not shown) [CPD-593, 2-((6-(2-(1-((6-((6-acetyl-8-cyclopentyl-5-methyl-7-oxo-7,8-dihydropyrido[2,3-d]pyrimidin-2-yl)amino)pyridin-3-yl)methyl)piperidin-4-yl)acetamido)spiro[3.3]heptan-2-yl)amino)-N-(6-(dimethylamino)pyridazin-3-yl)-6-(isopropylamino)nicotinamide]	–	–	–	> 85	> 85
CCc1ccc(C(=O)Nc2ccc(N(C)C)nn2)c(NC2CC3(CC(NC(=O)CN4CCN(Cc5ccc(Nc6ncc7c(C)c(C(C)=O)c(=O)n(C8CCCC8)c7n6)nc5)CC4)C3)C2)c1 (stereo not shown) [CPD-598, 2-((6-(2-(4-((6-((6-acetyl-8-cyclopentyl-5-methyl-7-oxo-7,8-dihydropyrido[2,3-d]pyrimidin-2-yl)amino)pyridin-3-yl)methyl)piperazin-1-yl)acetamido)spiro[3.3]heptan-2-yl)amino)-N-(6-(dimethylamino)pyridazin-3-yl)-4-ethylbenzamide]	–	–	–	55 to 85	> 85
CNc1ccc(C(=O)Nc2ccc(N(C)C)nn2)c(NCCCCCCC(=O)N2CCN(Cc3ccc(Nc4ncc(F)c(-c5cc(F)c6nc(C)n(C(C)C)c6c5)n4)nc3)CC2)n1 [CPD-604, N-(6-(dimethylamino)pyridazin-3-yl)-2-((7-(4-((6-((5-fluoro-4-(4-fluoro-1-isopropyl-2-methyl-1H-benzo[d]imidazol-6-yl)pyrimidin-2-yl)amino)pyridin-3-yl)methyl)piperazin-1-yl)-7-oxoheptyl)amino)-6-(methylamino)nicotinamide]	–	–	–	> 85	> 85
CNc1ccc(C(=O)Nc2ccc(N(C)C)nn2)c(NCCCCCNC(=O)CN2CCN(Cc3ccc(Nc4ncc(F)c(-c5cc(F)c6nc(C)n(C(C)C)c6c5)n4)nc3)CC2)n1 [CPD-611, N-(6-(dimethylamino)pyridazin-3-yl)-2-((5-(2-(4-((6-((5-fluoro-4-(4-fluoro-1-isopropyl-2-methyl-1H-benzo[d]imidazol-6-yl)pyrimidin-2-yl)amino)pyridin-3-yl)methyl)piperazin-1-yl)acetamido)pentyl)amino)-6-(methylamino)nicotinamide]	–	–	–	> 85	> 85
CNc1ccc(C(=O)Nc2ccc(N(C)C)nn2)c(NCCCCCCNC(=O)CN2CCN(Cc3ccc(Nc4ncc(F)c(-c5cc(F)c6nc(C)n(C(C)C)c6c5)n4)nc3)CC2)n1 [CPD-612, N-(6-(dimethylamino)pyridazin-3-yl)-2-((6-(2-(4-((6-((5-fluoro-4-(4-fluoro-1-isopropyl-2-methyl-1H-benzo[d]imidazol-6-yl)pyrimidin-2-yl)amino)pyridin-3-yl)methyl)piperazin-1-yl)acetamido)hexyl)amino)-6-(methylamino)nicotinamide]	–	–	–	> 85	> 85

The next lines start with the values.

inhibition at 0.04 µM (CDK4 [1]) [%]	inhibition at 0.2 µM (CDK4 [1]) [%]	IC50 (MCF7 cells) [nM]	activity at 0.01 µM (CDK4 [2]) [%]	activity at 0.1 µM (CDK4 [2]) [%]	SMILES
< 30	< 30	< 50	–	–	CC(=O)c1c(C)c2cnc(Nc3ccc(N4CCN(C(CC(=O)N5CC6(CC(Nc7nc(NC(C)C)ccc7C(=O)Nc7ccc(N(C)C)nn7)C6)C5)C(F)(F)F)CC4)cn3)nc2n(C2CCCC2)c1=O (stereo not shown) [CPD-367, 2-((2-(3-(4-(6-((6-acetyl-8-cyclopentyl-5-methyl-7-oxo-7,8-dihydropyrido[2,3-d]pyrimidin-2-yl)amino)pyridin-3-yl)piperazin-1-yl)-4,4,4-trifluorobutanoyl)-2-azaspiro[3.3]heptan-6-yl)amino)-N-(6-(dimethylamino)pyridazin-3-yl)-6-(isopropylamino)nicotinamide]
< 30	< 30	< 50	–	–	CC(=O)c1c(C)c2cnc(Nc3ccc(N4CCC5(CC4)CC5C(=O)N4CC5(CC(Nc6nc(NC(C)C)ccc6C(=O)Nc6ccc(N(C)C)nn6)C5)C4)cn3)nc2n(C2CCCC2)c1=O (stereo not shown) [CPD-411, 2-((2-(6-(6-((6-acetyl-8-cyclopentyl-5-methyl-7-oxo-7,8-dihydropyrido[2,3-d]pyrimidin-2-yl)amino)pyridin-3-yl)-6-azaspiro[2.5]octane-1-carbonyl)-2-azaspiro[3.3]heptan-6-yl)amino)-N-(6-(dimethylamino)pyridazin-3-yl)-6-(isopropylamino)nicotinamide]
–	–	–	> 85	> 85	CNc1ccc(C(=O)Nc2ccc(N(C)C)nn2)c(NCCCCCCCC(=O)N2CCN(Cc3ccc(Nc4ncc(F)c(-c5cc(F)c6nc(C)n(C(C)C)c6c5)n4)nc3)CC2)n1 [CPD-605, N-(6-(dimethylamino)pyridazin-3-yl)-2-((8-(4-((6-((5-fluoro-4-(4-fluoro-1-isopropyl-2-methyl-1H-benzo[d]imidazol-6-yl)pyrimidin-2-yl)amino)pyridin-3-yl)methyl)piperazin-1-yl)-8-oxooctyl)amino)-6-(methylamino)nicotinamide]
–	–	–	> 85	> 85	CNc1ccc(C(=O)Nc2ccc(N(C)C)nn2)c(NCCOCCC(=O)N2CCN(Cc3ccc(Nc4ncc(F)c(-c5cc(F)c6nc(C)n(C(C)C)c6c5)n4)nc3)CC2)n1 [CPD-606, N-(6-(dimethylamino)pyridazin-3-yl)-2-((2-(3-(4-((6-((5-fluoro-4-(4-fluoro-1-isopropyl-2-methyl-1H-benzo[d]imidazol-6-yl)pyrimidin-2-yl)amino)pyridin-3-yl)methyl)piperazin-1-yl)-3-oxopropoxy)ethyl)amino)-6-(methylamino)nicotinamide]
–	–	–	> 85	> 85	CNc1ccc(C(=O)Nc2ccc(N(C)C)nn2)c(NCCCCNC(=O)CN2CCN(Cc3ccc(Nc4ncc(F)c(-c5cc(F)c6nc(C)n(C(C)C)c6c5)n4)nc3)CC2)n1 [CPD-610, N-(6-(dimethylamino)pyridazin-3-yl)-2-((4-(2-(4-((6-((5-fluoro-4-(4-fluoro-1-isopropyl-2-methyl-1H-benzo[d]imidazol-6-yl)pyrimidin-2-yl)amino)pyridin-3-yl)methyl)piperazin-1-yl)acetamido)butyl)amino)-6-(methylamino)nicotinamide]
–	–	–	> 85	> 85	CNc1ccc(C(=O)Nc2ccc(N(C)C)nn2)c(NCCCCCCCNC(=O)CN2CCN(Cc3ccc(Nc4ncc(F)c(-c5cc(F)c6nc(C)n(C(C)C)c6c5)n4)nc3)CC2)n1 [CPD-613, N-(6-(dimethylamino)pyridazin-3-yl)-2-((7-(2-(4-((6-((5-fluoro-4-(4-fluoro-1-isopropyl-2-methyl-1H-benzo[d]imidazol-6-yl)pyrimidin-2-yl)amino)pyridin-3-yl)methyl)piperazin-1-yl)acetamido)heptyl)amino)-6-(methylamino)nicotinamide]

— patent US20260297081A1, “COMPOUNDS AND METHODS OF TREATING CANCERS” (Cullgen Inc., priority 2023, published 2026)
